Data set [1] has as its system Human diploid fibroblasts HCA. Briefly: Anti-aging activity: senescence-associated beta-galactosidase in human fibroblasts. Format: cell-based. The protocol:
In this example, effects of the compounds of this invention on the activity of a senescence biomarker senescence-associated β-galactosidase was studied. Human diploid fibroblasts HCA of various passage levels were used for this purpose. The tested compounds were added to the medium at each passage. After the incubation period, cells were washed with PBS and fixed with 2% formaldehyde and 0.2% glutaraldehyde in PBS. After another wash with PBS, they were incubated with the staining solution comprising potassium ferricyanide (5 mM), potassium ferrocyanide (5 mM), MgCl2 (2 mM), X-gal (5-bromo-4-chloro-3-indolyl-β-D-galactopyranoside) (1 mg/ml), in citric/phosphate buffer (pH 6.0) at 37° C. (without CO2) for at least 1 hour. Following the incubation period, the numbers of cells expressing senescence-associated β-galactosidase (blue cells) were counted using light microscope.

Data set [2] has as its system Rat C6 glioma (ATCC No. CCL107). As to the kind of experiment: Anti-inflammatory activity: isoproterenol-induced cAMP synthesis (ELISA). Format: cell-based. The settings on record: cAMP after 30 min, induced by (−)-isoproterenol. The protocol: Anti-inflammatory activity of several of the substituted 6-anilinopurine derivatives of this invention was determined; kinetin was also evaluated as a control. Rat C6 glioma (ATCC No. CCL107) was cultivated in monolayer in serum-free chemically defined medium containing Ham's F10/minimal essential medium (1:1 v/v), 2 mM L-glutamine, 1% (v/v) minimal essential medium vitamins (100×), 1% (v/v) minimal essential medium nonessential amino acids (100×), 100 U/ml penicillin, […], and 30 nM sodium selenite. Incubation was performed at 37° C. in a 100% humidified atmosphere. The assays were performed in the logarithmic growth phase at a density of 2.5×10^5 cells/cm^2. Intracellular cAMP synthesis was induced by addition of 5 mM (−)-isoproterenol; various amounts of test compounds were added at the same time as the (−)-isoproterenol. After 30 min incubation, the cellular amount of cAMP was determined using ELISA (cAMP-enzyme immunoassay kit from Amersham). The I50 values were determined from the dose-response curve in duplicate.
Background: ELISA stands for enzyme-linked immunosorbent assay.

Data set [3] concerns Salmonella typhimurium TA98 and TA100. Briefly: Ames test. Format: cell-based. The settings on record: 2.5 to 5000 μg/plate. The protocol: Amest test was used in order to exclude mutagenic effect of 2-chloro-6-(4-hydroxyanilino)purine. Histidin auxotrophs of Salmonella typhimurium TA98 and TA100 were used as indicator strains and the test was carried out according to standard protocols (Ames et al., Mutation Research, 31, 347-364 (1975); Maron et al., Mutation Research, 113, 173-215 (1983)). Tested concentrations were as follows: 2.5, 5.0, 15, 50, 500, 1500, a 5000 μg/plate. The compound was not mutagenic even in the concentrations exceeding its solubility limit in the culture medium.
(The Ames test uses bacterial strains that need an amino acid and regain growth without it when mutated back.)

Data set [4] relates to CKX1 overproducing Arabidopsis seedlings. As to the kind of experiment: CKX1 overproducing Arabidopsis seedlings grown in vitro on MS medium, phenotype reversion. Format: in vivo. The settings on record: in vitro on MS medium containing 0.1 μM compound.
Data set [5] concerns osteosarcoma cell line HOS. As to the kind of experiment: Calcein AM cytotoxicity assay. Format: cell-based, human. The following applies: 72 hours. The source says: (§1) Absence of toxic effects against mammalian (especially human) cell lines in a wide concentration range is one of the requirements on compounds intended for use in agriculture and medicine. Because toxic compounds negatively influence metabolic processes in cells, many standard cytotoxicity assays are based on measurement of metabolisation rate of various artificial substrates. Resulting product is then quantified e.g. by means of spectrometry. The assays can be easily modified for use in 96-well plates. For evaluation of cytotoxic effect of compounds of this invention, a microtiter assay based on quantification of metabolisation of Calcein AM was used. The assay is widely used in drug screening programs and in chemosensitivity testing. In live cells, Calcein AM is enzymatically hydrolysed and accumulation of resulting calcein is manifested by green fluorescence.
(§2) Following human cell lines were used for routine screening of the compounds: T-lymphoblastic leukemia cell line CEM, promyelocytic leukemia cell line HL-60, erytroid leukemia cell line K-562, breast carcinoma cell line MCF-7, osteosarcoma cell line HOS and melanoma cell line G-361. Mouse cell lines B16-F10 (melanoma) and NIH-3T3 (fibroblasts) were used as well. The cells were maintained in Nunc/Corning 80 cm^2 plastic tissue culture flasks and cultured in cell culture medium (DMEM with 5 g/l glucose, 2 mM glutamine, 100 U/ml penicillin, 100 μg/ml streptomycin, 10% fetal calf serum and sodium bicarbonate).
(§3) The cell suspensions were prepared and diluted according to the particular cell type and the expected target cell density (2.500-30.000 cells per well based on cell growth characteristics) and pippetted (80 μl) into 96-well plates. Inoculates were allowed a pre-incubation period of 24 hours at 37° C. and 5% CO2 for stabilisation. Tested compound was added in total volume of 20 μl of water at time zero. Usually, test compound was evaluated at six 3-fold dilutions. In routine testing, the highest concentration tested was 166.6 μM. All drug concentrations were tested in triplicates. Incubations of cells with the test compounds lasted for 72 hours at 37° C., in 5% CO2 atmosphere and 100% humidity. At the end of incubation period Calcein AM in PBS was added into final concentration of 1 μg/ml. After another 1 hour of incubation fluorescence (FD) was measured with the Labsystem FIA Reader Fluoroscan Ascent (UK). Growth inhibition (GI) was estimated using the following equitation: GI=(mean FDdrug exposed wells−mean FDblank)/(mean FDcontrol wells−mean FDblank)×100%. The GI50 value, the drug concentration causing 50% reduction of Calcein AM conversion, was calculated from the obtained dose response curves.

For data set [6], the system named is T-lymphoblastic leukemia cell line CEM. Briefly: Calcein AM cytotoxicity assay. Format: cell-based, human. The following applies: 72 hours.
Source text: as §1
(§4) Mouse cell lines B16-F10 (melanoma) and NIH-3T3 (fibroblasts) were used as well. The cells were maintained in Nunc/Corning 80 cm^2 plastic tissue culture flasks and cultured in cell culture medium (DMEM with 5 g/l glucose, 2 mM glutamine, 100 U/ml penicillin, 100 μg/ml streptomycin, 10% fetal calf serum and sodium bicarbonate).
as §3, with “In routine testing, the highest concentration tested was 166.6 μM.” left out, “FDblank)×100%.” for “FDblank)×100%. The GI50 value, the drug concentration causing 50% reduction of Calcein AM conversion, was calculated from the obtained dose response curves.”

The subject of data set [7] is promyelocytic leukemia cell line HL-60. Briefly: Calcein AM cytotoxicity assay. Format: cell-based, human. The following applies: read-out: GI50 HL60.
Source text: as §1, §4
as §3, with “In routine testing, the highest concentration tested was 166.6 μM.” left out, “FDblank)×100%.” for “FDblank)×100%. The GI50 value, the drug concentration causing 50% reduction of Calcein AM conversion, was calculated from the obtained dose response curves.”

For a further data set, the system named is NIH-3T3 (fibroblasts). As to the kind of experiment: Calcein AM cytotoxicity assay. Format: cell-based, Mouse.
Source text: as §1, §4
as §3, with “In routine testing, the highest concentration tested was 166.6 μM.” left out, “FDblank)×100%.” for “FDblank)×100%. The GI50 value, the drug concentration causing 50% reduction of Calcein AM conversion, was calculated from the obtained dose response curves.”

Data set [8] concerns erytroid leukemia cell line K-562. Briefly: Calcein AM cytotoxicity assay. Format: cell-based, human. The settings on record: 72 hours.
Source text: as §1, §2, §3

Another data set deals with melanoma cell line G-361. Briefly: Calcein AM cytotoxicity assay. Format: cell-based, human. The following applies: 72 hours.
Source text: as §1, §2, §3

Data set [9] has as its system breast carcinoma cell line MCF-7. As to the kind of experiment: Calcein AM cytotoxicity assay. Format: cell-based, human. The following applies: 72 hours, read-out: GI50 MCF7.
Source text: as §1, §4
as §3, with “In routine testing, the highest concentration tested was 166.6 μM.” left out, “FDblank)×100%.” for “FDblank)×100%. The GI50 value, the drug concentration causing 50% reduction of Calcein AM conversion, was calculated from the obtained dose response curves.”

A further data set relates to B16-F0. As to the kind of experiment: Calcein AM cytotoxicity assay. Format: cell-based, Mouse. The settings on record: 72 hours.

This is an account of results in patent US8222260B2, “Substituted 6-anilinopurine derivatives as inhibitors of cytokinin oxidase/dehydrogenase and preparations containing these derivatives” (Univerzita Palackego V Olomouci, priority 2007, dated 2012).

Read-outs that look alike come from different tables or passages of the source.

In the case of `Oc1ccc(Nc2nc(Cl)nc3nc[nH]c23)cc1` [Compound 10, 2-chloro-6-(4-hydroxyanilino)purine], the “Senescent Cells (%) HCA passage 25” value in [1] (passage 25, cells expressing senescence-associated beta-galactosidase) stood at 4%. For the same compound, the “Senescent Cells (%) HCA passage 50” value in [1] (passage 50, cells expressing senescence-associated beta-galactosidase) came out at 6%. The “Senescent Cells (%) HCA passage 80” value in [1] (passage 80, cells expressing senescence-associated beta-galactosidase) is 22%. For the same compound, in data set [2] (Rattus norvegicus, C6 glioma, 0.5 h, read-out: I50), the IC50 stood at 13 µM. Moreover, the “Effect (anti-inflammatory activity)” value in data set [2] is recorded as “Inhibition”. For the same compound, the mutagenic effect result in [3] is “not mutagenic”.

One may read the GI50 as the concentration giving 50% growth inhibition. Take `c1ccc(CNc2ncnc3nc[nH]c23)cc1` [benzylamino, 6-benzylaminopurine, reference compound]: the “reversion of WT phenotype” value in [4] is given as “appeared only when the compound 12 was present”. In addition, the GI50 in [5] (Homo sapiens) is above 167 µM; in [6] (Homo sapiens), above 167 µM; in data set [7] (Homo sapiens, HL-60, 72 hours) it was above 167 µM; in the data set with NIH-3T3 (fibroblasts) (Mus musculus, NIH3T3, 72 hours), above 167 µM.

As for `Oc1cccc(CNc2ncnc3nc[nH]c23)c1` [meta-topolin, reference compound], the GI50 in [8] was 128 µM; in the data set on melanoma cell line G-361, above 167 µM; in [5], above 167 µM; in data set [6] it was 90.1 µM; in [9], above 167 µM; in data set [7] (72 hours), 79.2 µM. For the same compound, the GI50 was 90.6 µM with B16-F0 and above 167 µM with NIH-3T3 (fibroblasts) (72 hours).

As to `Oc1ccccc1CNc1ncnc2nc[nH]c12` [ortho-topolin, reference compound], the concentration for 50% growth inhibition (GI50) was above 167 µM in data set [8]; 103 µM in the data set on melanoma cell line G-361; above 167 µM in data set [5]; 69.2 µM in data set [6]; above 167 µM in data set [9]; 78 µM in data set [7] (72 hours). For the same compound, the GI50 is 150 µM in the data set on B16-F0 and above 167 µM in the data set on NIH-3T3 (fibroblasts) (72 hours).
